Measurements taken from PubChem BioAssay AID1963432 (Molecular Pharmacology Branch, DTP, NCI, 2024).
Values belong to the molecule of their own block, whether it stands above or below them.

Test system: SYO-1 complex spheroid growth, percent test/control
Assay: Anticancer human tumor SYO-1 cell line growth inhibition [Asc];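 further: compound exposure lasted 7 days after spheroids grew 3 days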;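 on viability, T/C: 100% = DMSO vehicle control viability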
Details: for IC50: curve of first compound; for viability, T/C: stronger effect = lower value
Procedure, shortened: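 Concentration series start at each agent's clinical Cmax, or at 10 microM when none is established, and drop in half-log steps; agents are applied alone or together to complex spheroids built with HUVEC and hMSC.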

[1] = second compound 0.0316 µM, first compound 0.00316 µM
[2] = second compound 0.0316 µM, first compound 0.01 µM
[3] = second compound 0.0316 µM, first compound 0.0316 µM
[4] = second compound 0.0316 µM, first compound 0.1 µM
[5] = second compound 0.1 µM, first compound 0.00316 µM
[6] = second compound 0.1 µM, first compound 0.01 µM
[7] = second compound 0.1 µM, first compound 0.0316 µM
[8] = second compound 0.1 µM, first compound 0.1 µM
[9] = second compound 0.316 µM, first compound 0.00316 µM
[10] = second compound 0.316 µM, first compound 0.01 µM
[11] = second compound 0.316 µM, first compound 0.0316 µM
[12] = second compound 0.316 µM, first compound 0.1 µM
[13] = second compound 1 µM, first compound 0.00316 µM
[14] = second compound 1 µM, first compound 0.01 µM
[15] = second compound 1 µM, first compound 0.0316 µM
[16] = second compound 1 µM, first compound 0.1 µM
[17] = second compound 3.16 µM, first compound 0.00316 µM
[18] = second compound 3.16 µM, first compound 0.01 µM
[19] = second compound 3.16 µM, first compound 0.0316 µM
[20] = second compound 3.16 µM, first compound 0.1 µM
[21] = second compound 10 µM, first compound 0.00316 µM
[22] = second compound 10 µM, first compound 0.01 µM
[23] = second compound 10 µM, first compound 0.0316 µM
[24] = second compound 10 µM, first compound 0.1 µM

IC50 (second compound 0.0316 µM): 652 nM
IC50 (second compound 0.1 µM): 596 nM
IC50 (second compound 0.316 µM): 509 nM
IC50 (second compound 1 µM): 452 nM
IC50 (second compound 3.16 µM): 300 nM
IC50 (second compound 10 µM): 194 nM
SMILES: COc1c(OCCCN2CCOCC2)ccc2c3n(c(=NC(=O)c4cnc(N)nc4)nc12)CCN3 + Cc1c(S(C)(=O)=O)c(-c2cc(F)cc(N3CCN(c4ccc(NS(=O)(=O)c5ccc(NC(CCN6CCC(C(=O)OCCCP(=O)(O)O)CC6)CSc6ccccc6)c(S(=O)(=O)C(F)(F)F)c5)cc4)CC3)c2)c(-c2ccc(Cl)cc2)n1C(C)C
viability, T/C [1]: 104%
viability, T/C [2]: 93.8%
viability, T/C [3]: 93.5%
viability, T/C [4]: 83.1%
viability, T/C (second compound 0.0316 µM, first compound 0.316 µM): 74.6%
viability, T/C (second compound 0.0316 µM, first compound 1 µM): 36.4%
viability, T/C [5]: 99.2%
viability, T/C [6]: 97%
viability, T/C [7]: 91.8%
viability, T/C [8]: 80.3%
viability, T/C (second compound 0.1 µM, first compound 0.316 µM): 69.5%
viability, T/C (second compound 0.1 µM, first compound 1 µM): 35.6%
viability, T/C [9]: 90.7%
viability, T/C [10]: 98.3%
viability, T/C [11]: 94.1%
viability, T/C [12]: 82.4%
viability, T/C (second compound 0.316 µM, first compound 0.316 µM): 65.8%
viability, T/C (second compound 0.316 µM, first compound 1 µM): 28.5%
viability, T/C [13]: 91.5%
viability, T/C [14]: 100%
viability, T/C [15]: 94.7%
viability, T/C [16]: 87.5%
viability, T/C (second compound 1 µM, first compound 0.316 µM): 63.4%
viability, T/C (second compound 1 µM, first compound 1 µM): 20.5%
viability, T/C [17]: 92.5%
viability, T/C [18]: 91.1%
viability, T/C [19]: 92.3%
viability, T/C [20]: 78.1%
viability, T/C (second compound 3.16 µM, first compound 0.316 µM): 49%
viability, T/C (second compound 3.16 µM, first compound 1 µM): 11.6%
viability, T/C [21]: 83.2%
viability, T/C [22]: 88.7%
viability, T/C [23]: 72.3%
viability, T/C [24]: 62%
viability, T/C (second compound 10 µM, first compound 0.316 µM): 41.7%
viability, T/C (second compound 10 µM, first compound 1 µM): 6.85%

IC50 (second compound 0.0316 µM): 170 nM
IC50 (second compound 0.1 µM): 165 nM
IC50 (second compound 0.316 µM): 159 nM
IC50 (second compound 1 µM): 155 nM
IC50 (second compound 3.16 µM): 148 nM
IC50 (second compound 10 µM): 110 nM
SMILES: NC(=O)C(=Cn1cnc(-c2cc(C(F)(F)F)cc(C(F)(F)F)c2)n1)c1cncnc1 + Cc1c(S(C)(=O)=O)c(-c2cc(F)cc(N3CCN(c4ccc(NS(=O)(=O)c5ccc(NC(CCN6CCC(C(=O)OCCCP(=O)(O)O)CC6)CSc6ccccc6)c(S(=O)(=O)C(F)(F)F)c5)cc4)CC3)c2)c(-c2ccc(Cl)cc2)n1C(C)C
viability, T/C (second compound 0.0316 µM, first compound 0.000949 µM): 98.1%
viability, T/C (second compound 0.0316 µM, first compound 0.003 µM): 102%
viability, T/C (second compound 0.0316 µM, first compound 0.00949 µM): 86.8%
viability, T/C (second compound 0.0316 µM, first compound 0.03 µM): 93.8%
viability, T/C (second compound 0.0316 µM, first compound 0.0949 µM): 96.3%
viability, T/C (second compound 0.0316 µM, first compound 0.3 µM): 5.53%
viability, T/C (second compound 0.1 µM, first compound 0.000949 µM): 97.6%
viability, T/C (second compound 0.1 µM, first compound 0.003 µM): 94%
viability, T/C (second compound 0.1 µM, first compound 0.00949 µM): 89.9%
viability, T/C (second compound 0.1 µM, first compound 0.03 µM): 93.9%
viability, T/C (second compound 0.1 µM, first compound 0.0949 µM): 95.7%
viability, T/C (second compound 0.1 µM, first compound 0.3 µM): 2.56%
viability, T/C (second compound 0.316 µM, first compound 0.000949 µM): 95%
viability, T/C (second compound 0.316 µM, first compound 0.003 µM): 94.8%
viability, T/C (second compound 0.316 µM, first compound 0.00949 µM): 92.9%
viability, T/C (second compound 0.316 µM, first compound 0.03 µM): 92.8%
viability, T/C (second compound 0.316 µM, first compound 0.0949 µM): 89.1%
viability, T/C (second compound 0.316 µM, first compound 0.3 µM): 1.51%
viability, T/C (second compound 1 µM, first compound 0.000949 µM): 101%
viability, T/C (second compound 1 µM, first compound 0.003 µM): 91.2%
viability, T/C (second compound 1 µM, first compound 0.00949 µM): 86%
viability, T/C (second compound 1 µM, first compound 0.03 µM): 90.8%
viability, T/C (second compound 1 µM, first compound 0.0949 µM): 86.5%
viability, T/C (second compound 1 µM, first compound 0.3 µM): 0.55%
viability, T/C (second compound 3.16 µM, first compound 0.000949 µM): 91.2%
viability, T/C (second compound 3.16 µM, first compound 0.003 µM): 87.3%
viability, T/C (second compound 3.16 µM, first compound 0.00949 µM): 84%
viability, T/C (second compound 3.16 µM, first compound 0.03 µM): 86.3%
viability, T/C (second compound 3.16 µM, first compound 0.0949 µM): 81.3%
viability, T/C (second compound 3.16 µM, first compound 0.3 µM): 0.31%
viability, T/C (second compound 10 µM, first compound 0.000949 µM): 89%
viability, T/C (second compound 10 µM, first compound 0.003 µM): 76.8%
viability, T/C (second compound 10 µM, first compound 0.00949 µM): 75.6%
viability, T/C (second compound 10 µM, first compound 0.03 µM): 67.2%
viability, T/C (second compound 10 µM, first compound 0.0949 µM): 61.6%
viability, T/C (second compound 10 µM, first compound 0.3 µM): 0.38%

IC50 (second compound 0.0316 µM): > 100 nM
IC50 (second compound 0.1 µM): > 100 nM
IC50 (second compound 0.316 µM): > 100 nM
IC50 (second compound 1 µM): > 100 nM
IC50 (second compound 3.16 µM): > 100 nM
IC50 (second compound 10 µM): > 100 nM
SMILES: NC1CCC(NC2CC2c2ccccc2)CC1 (stereo unspecified) + Cc1c(S(C)(=O)=O)c(-c2cc(F)cc(N3CCN(c4ccc(NS(=O)(=O)c5ccc(NC(CCN6CCC(C(=O)OCCCP(=O)(O)O)CC6)CSc6ccccc6)c(S(=O)(=O)C(F)(F)F)c5)cc4)CC3)c2)c(-c2ccc(Cl)cc2)n1C(C)C
viability, T/C (second compound 0.0316 µM, first compound 0.000316 µM): 100%
viability, T/C (second compound 0.0316 µM, first compound 0.001 µM): 92.1%
viability, T/C [1]: 90.5%
viability, T/C [2]: 84.8%
viability, T/C [3]: 86.9%
viability, T/C [4]: 89%
viability, T/C (second compound 0.1 µM, first compound 0.000316 µM): 96.5%
viability, T/C (second compound 0.1 µM, first compound 0.001 µM): 92.7%
viability, T/C [5]: 86.3%
viability, T/C [6]: 87.1%
viability, T/C [7]: 91.8%
viability, T/C [8]: 86.5%
viability, T/C (second compound 0.316 µM, first compound 0.000316 µM): 105%
viability, T/C (second compound 0.316 µM, first compound 0.001 µM): 91.8%
viability, T/C [9]: 87.9%
viability, T/C [10]: 91.7%
viability, T/C [11]: 89.1%
viability, T/C [12]: 86.9%
viability, T/C (second compound 1 µM, first compound 0.000316 µM): 92.2%
viability, T/C (second compound 1 µM, first compound 0.001 µM): 88.5%
viability, T/C [13]: 96.9%
viability, T/C [14]: 92.3%
viability, T/C [15]: 90.6%
viability, T/C [16]: 85.8%
viability, T/C (second compound 3.16 µM, first compound 0.000316 µM): 91.3%
viability, T/C (second compound 3.16 µM, first compound 0.001 µM): 85.3%
viability, T/C [17]: 88.7%
viability, T/C [18]: 85.8%
viability, T/C [19]: 79.8%
viability, T/C [20]: 87.2%
viability, T/C (second compound 10 µM, first compound 0.000316 µM): 85.7%
viability, T/C (second compound 10 µM, first compound 0.001 µM): 85.4%
viability, T/C [21]: 80.5%
viability, T/C [22]: 82.4%
viability, T/C [23]: 83.3%
viability, T/C [24]: 79.7%
